Data published in US4861778A, “2,3-dihydrophthalazine-1,4-diones” (priority 1986, dated 1989).
Read-outs that look alike come from different tables or passages of the source.

Key:
[1] = system: serum cholesterol and serum triglycerides; experiment: Effect of Compound 1 on hyperlipidemic mice (Example 14); format: in vivo, CF1 male mice; conditions: diet-induced hyperlipidemic CF1 mice, 20 mg/kg daily, 12 days
Description: Effect of Compound 1 on Hyperlipidemic Mice
A group of CF1 male mice were fed a diet resulting in induced hyperlipidemia.
These hyperlipidemic mice were treated for 12 days with Compound 1 (2,3-dihydrophthalazine-1,4-dione) at a daily dosage of 20 mg/kg. At the conclusion of this treatment regime the average serum cholesterol level of the hyperlipidemic mice was lowered to 221 mg percent, a 41 percent reduction.

[2] = system: serum cholesterol and serum triglyceride; experiment: Hypolipidemic effect of Compound No. 1 in normal Sprague-Dawley male rats (Example 12, Table III); format: in vivo; conditions: 10 mg/kg/day orally
Description: In addition, rats were treated with Compound No. 1. The rats used in the test were normal Sprague-Dawley male rats, each weighting approximately 350 grams. The rats, tested in groups of six, were orally administered 10 mg/kg/d of Compound 1 in an aqueous solution of 1 percent CMC. The treatment of 10 milligrams per kilogram of body weight per day continued for 14 days. On Days 7 and 14 blood was obtained from each of the rats by tail vein bleeding. The blood obtained was separated centrifugation for three minutes. Serum cholesterol and serum triglyceride blood levels were determined in accordance with the procedure of Example 1.
(§1) In Table III the results are reported as percent of serum cholesterol and serum triglyceride based on the concentration of these materials found in the control, the rats treated with the 1 percent aqueous solution of CMC.

[3] = system: serum cholesterol and serum triglyceride; experiment: Hypolipidemic effect of Compound No. 1 in normal CF1 male mice, dose response (Example 12, Table III); format: in vivo
Description: The hypolipidemic effects of a preferred compound within the scope of the present invention, 2,3-dihydrophthalazine-1,4-dione (Compound No. 1), was tested in accordance with the procedure set forth in Example 11. However, in addition to testing normal CF1 male mice at 20 mg/kg/d ip, sets of six of these mice were treated with dosages of 10, 40 and 60 mg/kg/d. A set of six mice were again treated with a 1 percent aqueous solution of CMC, the carrier for the active agent, as a control.
as §1

[4] = system: serum cholesterol and serum triglyceride; experiment: Hypolipidemic activity of 2,3-dihydrophthalazine-1,4-diones in normal male mice (Example 11, Table II); format: in vivo, CF1 male mice; conditions: Mus musculus, ip, CF1 male mice, 20 mg/kg/day intraperitoneally
Description: Hypolipidemic Activity of 2,3-Dihydrophthalazine-1,4-Diones in Normal Male Mice
Each of the prepared compounds was administered intraperitoneally, in a dosage of 20 milligrams per kilogram of body weight per day, to a group of six CF1 male mice, each weighing approximately 25 grams, for 16 days. On Days 9 and 16 blood was obtained from each of the tested mice by tail vein bleeding. The blood serum so obtained was separated by centrifugation for three minutes. […] Serum triglyceride levels were obtained on Day 16 by use of the Bio-Dynamics/bm Triglyceride Kit.
In addition to the above-described treated mice, an untreated control group of six mice were similarly tested on Days 9 and 16 to determine their serum cholesterol and serum triglyceride blood levels.

[5] = system: plasma lipoprotein fractions; experiment: Determination of plasma lipoprotein fractions in rats (Example 13, Table IV); format: in vivo, Sprague-Dawley male rats; conditions: 10 mg/kg/d orally
From the text: Determination of Plasma Lipoprotein Fractions in Rats
Sets of six normal Sprague-Dawley male rats, each weighing approximately 350 grams, were orally treated with 10 milligrams per kilogram of body weight per day of 2,3-dihydrophthalazine-1,4-dione (Comp. No. 1) by intubation needle. In addition, a set of six Sprague-Dawley male rats of approximately the same weight were similarly treated except that the administered drug was the inert carrier, the 1 percent aqueous solution of CMC.
Blood was collected from all the rats participating in the test from the abdominal vein and lipoprotein fractions were obtained by the method of Hatch and Lees (Adv. Lipid Res., Vol. 6, 1 [1968]) and Havel et al. (J. Clin. Invest., Vol. 34, 1345 [1955]). Each of the fractions were analyzed for cholesterol in accordance with the Ness et al. test, for triglyceride level (Bio-Dynamic/bmc Triglyceride Kit), neutral lipids, in accordance with the test of Bragdon (J. Biol. Chem., Vol. 190, 513 [1951]), phospholipids, in accordance with the Stewart and Hendry procedure (Biochem. J., Vol. 29, 1683 [1935]) and protein levels, in accordance with the procedure of Lowry et al. (J. Biol. Chem., Vol. 193, 265 [1951]).

O=c1[nH][nH]c(=O)c2ccccc12 [Compound 1, 2,3-Dihydrophthalazine-1,4-Dione]
reduction of serum cholesterol level [1]: 41%
reduction of serum triglycerides level [1]: 56%
average serum triglycerides level after treatment ([1]; initial 367 mg/dl): 161 mg/dL
average serum cholesterol level after treatment ([1]; initial 375 mg percent): 221 mg percent
Cholesterol Day 7, % control ± standard deviation ([2]; Day 7): 75 ± 5 % CONTROL
Triglyceride Day 7, % control ± standard deviation ([2]; Day 7): 66 ± 6 % CONTROL
Cholesterol Day 14, % control ± standard deviation ([2]; Day 14): 68 ± 8 % CONTROL
Triglyceride Day 14, % control ± standard deviation ([2]; Day 14): 64 ± 5 % CONTROL
Cholesterol Day 9, % control ± standard deviation ([3]; 10 mg/kg/day ip): 88 ± 5 % CONTROL
Cholesterol Day 16, % control ± standard deviation ([3]; 10 mg/kg/day ip): 76 ± 7 % CONTROL
Triglyceride Day 16, % control ± standard deviation ([3]; 10 mg/kg/day ip): 67 ± 5 % CONTROL
Cholesterol Day 9, % control ± standard deviation ([3]; 20 mg/kg/day ip): 53 ± 4 % CONTROL
Cholesterol Day 16, % control ± standard deviation ([3]; 20 mg/kg/day ip): 49 ± 8 % CONTROL
Triglyceride Day 16, % control ± standard deviation ([3]; 20 mg/kg/day ip): 57 ± 4 % CONTROL
Cholesterol Day 9, % control ± standard deviation ([3]; 40 mg/kg/day ip): 71 ± 7 % CONTROL
Cholesterol Day 16, % control ± standard deviation ([3]; 40 mg/kg/day ip): 60 ± 6 % CONTROL
Triglyceride Day 16, % control ± standard deviation ([3]; 40 mg/kg/day ip): 44 ± 3 % CONTROL
Cholesterol Day 9, % control ± standard deviation ([3]; 60 mg/kg/day ip): 76 ± 8 % CONTROL
Cholesterol Day 16, % control ± standard deviation ([3]; 60 mg/kg/day ip): 55 ± 5 % CONTROL
Triglyceride Day 16, % control ± standard deviation ([3]; 60 mg/kg/day ip): 49 ± 5 % CONTROL
response vs control in vivo at 20 mg/kg/day ([4]; 216 h, Day 9, read-out: Serum Cholesterol Day 9, percent control ± standard deviation): 53 ± 4%
response vs control in vivo at 20 mg/kg/day ([4]; 384 h, Day 16, read-out: Serum Cholesterol Day 16, percent control ± standard deviation): 49 ± 5%
response vs control in vivo at 20 mg/kg/day ([4]; 384 h, Day 16, read-out: Serum Triglyceride Day 16, percent control ± standard deviation): 57 ± 4%
HDL cholesterol, percent control ± standard deviation ([5]; HDL, column 1): 107 ± 3 PERCENT CONTROL
HDL triglyceride, percent control ± standard deviation ([5]; HDL, column 2): 42 ± 4 PERCENT CONTROL
HDL neutral lipids, percent control ± standard deviation ([5]; HDL, column 3): 86 ± 3 PERCENT CONTROL
HDL phospholipids, percent control ± standard deviation ([5]; HDL, column 4): 42 ± 6 PERCENT CONTROL
HDL protein, percent control ± standard deviation ([5]; HDL, column 5): 93 ± 7 PERCENT CONTROL
LDL cholesterol, percent control ± standard deviation ([5]; LDL, column 1): 35 ± 6 PERCENT CONTROL
LDL triglyceride, percent control ± standard deviation ([5]; LDL, column 2): 94 ± 7 PERCENT CONTROL
LDL neutral lipids, percent control ± standard deviation ([5]; LDL, column 3): 88 ± 6 PERCENT CONTROL
LDL phospholipids, percent control ± standard deviation ([5]; LDL, column 4): 125 ± 7 PERCENT CONTROL
LDL protein, percent control ± standard deviation ([5]; LDL, column 5): 92 ± 8 PERCENT CONTROL
VLDL cholesterol, percent control ± standard deviation ([5]; VLDL, column 1): 30 ± 5 PERCENT CONTROL
VLDL triglyceride, percent control ± standard deviation ([5]; VLDL, column 2): 134 ± 10 PERCENT CONTROL
VLDL neutral lipids, percent control ± standard deviation ([5]; VLDL, column 3): 81 ± 3 PERCENT CONTROL
VLDL phospholipids, percent control ± standard deviation ([5]; VLDL, column 4): 91 ± 6 PERCENT CONTROL
VLDL protein, percent control ± standard deviation ([5]; VLDL, column 5): 103 ± 7 PERCENT CONTROL
Chylomicrons cholesterol, percent control ± standard deviation ([5]; chylomicrons, column 1): 82 ± 6 PERCENT CONTROL
Chylomicrons triglyceride, percent control ± standard deviation ([5]; chylomicrons, column 2): 85 ± 7 PERCENT CONTROL
Chylomicrons neutral lipids, percent control ± standard deviation ([5]; chylomicrons, column 3): 84 ± 8 PERCENT CONTROL
Chylomicrons phospholipids, percent control ± standard deviation ([5]; chylomicrons, column 4): 92 ± 7 PERCENT CONTROL
Chylomicrons protein, percent control ± standard deviation ([5]; chylomicrons, column 5): 102 ± 6 PERCENT CONTROL
